Data: ChEMBL document CHEMBL1777737, “Solid phase synthesis of tariquidar-related modulators of ABC transporters preferring breast cancer resistance protein (ABCG2)” (Bioorg Med Chem Lett, 2011)

Columns and labels:
Type in all cases: cell-based
[1] = target: T1, Broad substrate specificity ATP-binding cassette transporter ABCG2 (Homo sapiens, UniProt Q9UNQ0); test: Inhibition of ABCG2 expressed in human MCF7/Topo cells by Hoechst microplate assay
T1 sequence (Q9UNQ0 whole entry): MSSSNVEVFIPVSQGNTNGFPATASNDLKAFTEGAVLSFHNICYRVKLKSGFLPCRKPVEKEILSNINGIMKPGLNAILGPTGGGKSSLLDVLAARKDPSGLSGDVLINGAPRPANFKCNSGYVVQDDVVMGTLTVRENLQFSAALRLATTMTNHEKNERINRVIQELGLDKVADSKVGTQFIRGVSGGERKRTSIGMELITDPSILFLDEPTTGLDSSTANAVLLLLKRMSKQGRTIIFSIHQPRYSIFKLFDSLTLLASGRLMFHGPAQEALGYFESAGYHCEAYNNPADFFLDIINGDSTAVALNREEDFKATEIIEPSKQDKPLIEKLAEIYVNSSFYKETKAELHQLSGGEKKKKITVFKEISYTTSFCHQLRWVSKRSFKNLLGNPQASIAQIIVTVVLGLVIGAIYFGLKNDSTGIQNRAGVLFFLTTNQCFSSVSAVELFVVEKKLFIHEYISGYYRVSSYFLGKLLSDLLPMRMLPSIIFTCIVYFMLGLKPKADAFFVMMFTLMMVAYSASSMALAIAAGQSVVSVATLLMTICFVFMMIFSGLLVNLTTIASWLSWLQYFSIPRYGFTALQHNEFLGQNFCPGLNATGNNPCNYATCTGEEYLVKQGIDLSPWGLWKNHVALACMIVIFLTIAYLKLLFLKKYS

[2] = target: ATP-dependent translocase ABCB1 (Homo sapiens, UniProt P08183); test: Inhibition of ABCB1 expressed in Kb-V1 cells after 10 mins by calcein-AM assay
ABCG2 = target: T2, ABCG2 (Homo sapiens, UniProt Q9UNQ0); test: Inhibition of ABCG2 expressed in human MCF7/Topo cells assessed as maximal inhibitory effect at IC50 concentration by Hoechst microplate assay; settings: MCF7/Topo cells expressing ABCG2, probe Hoechst dye, read-out: INH
T2 sequence (Q9UNQ0 whole entry): T1 sequence (Q9UNQ0 whole entry)

ATP-dependent translocase ABCB1, sequence (P08183 whole entry): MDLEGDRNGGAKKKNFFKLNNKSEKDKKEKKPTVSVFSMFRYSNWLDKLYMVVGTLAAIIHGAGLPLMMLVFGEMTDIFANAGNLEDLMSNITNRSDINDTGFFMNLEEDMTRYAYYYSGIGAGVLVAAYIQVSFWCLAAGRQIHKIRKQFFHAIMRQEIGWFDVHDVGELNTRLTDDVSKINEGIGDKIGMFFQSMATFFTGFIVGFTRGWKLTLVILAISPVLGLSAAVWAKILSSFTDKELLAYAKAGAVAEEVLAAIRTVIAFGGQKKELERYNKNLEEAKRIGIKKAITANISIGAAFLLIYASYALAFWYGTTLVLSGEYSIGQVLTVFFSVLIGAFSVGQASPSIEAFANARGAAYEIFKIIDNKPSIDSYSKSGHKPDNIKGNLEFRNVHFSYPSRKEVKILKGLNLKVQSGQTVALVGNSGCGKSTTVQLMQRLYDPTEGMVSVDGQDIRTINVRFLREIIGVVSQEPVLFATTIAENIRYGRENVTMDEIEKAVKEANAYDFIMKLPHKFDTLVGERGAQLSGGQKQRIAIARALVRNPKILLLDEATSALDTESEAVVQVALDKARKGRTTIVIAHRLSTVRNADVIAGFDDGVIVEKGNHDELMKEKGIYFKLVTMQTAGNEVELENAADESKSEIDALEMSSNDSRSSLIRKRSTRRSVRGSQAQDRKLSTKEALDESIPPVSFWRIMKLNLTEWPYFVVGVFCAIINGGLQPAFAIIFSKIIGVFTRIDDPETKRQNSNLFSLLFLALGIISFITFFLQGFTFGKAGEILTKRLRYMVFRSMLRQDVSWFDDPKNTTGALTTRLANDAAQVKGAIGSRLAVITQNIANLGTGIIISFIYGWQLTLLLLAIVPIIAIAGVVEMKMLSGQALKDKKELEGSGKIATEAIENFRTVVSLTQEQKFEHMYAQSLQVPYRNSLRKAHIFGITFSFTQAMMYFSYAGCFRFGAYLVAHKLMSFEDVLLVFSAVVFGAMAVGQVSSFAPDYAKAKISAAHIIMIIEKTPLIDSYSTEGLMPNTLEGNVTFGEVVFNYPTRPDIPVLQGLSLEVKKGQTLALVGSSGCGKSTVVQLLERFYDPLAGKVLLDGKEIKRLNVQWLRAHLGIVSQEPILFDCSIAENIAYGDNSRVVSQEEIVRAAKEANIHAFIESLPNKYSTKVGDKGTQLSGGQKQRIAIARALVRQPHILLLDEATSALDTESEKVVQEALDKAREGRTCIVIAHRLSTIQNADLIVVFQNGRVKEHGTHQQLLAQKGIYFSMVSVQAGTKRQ

IC50 [1]	IC50 [2]	Emax (ABCG2)	SMILES
> 50 µM	> 100 µM	–	COCCOCCOCCOc1cc2c(cc1OC)CN(CCc1ccc(NC(=O)c3ccc(C(=O)O)c(NC(=O)c4ccc5ccccc5n4)c3)cc1)CC2
> 5 µM	> 50 µM	–	COc1cc2c(cc1OC)CN(CCc1ccc(NC(=O)c3ccc(C(=O)O)c(NC(=O)c4ccc5ccccc5n4)c3)cc1)CC2
0.13 µM	> 50 µM	–	COCCOCCOCCOc1cc2c(cc1OC)CCN(CCc1ccc(NC(=O)c3ccc(C(=O)OC)c(NC(=O)c4ccc5ccccc5n4)c3)cc1)C2
0.39 µM	> 100 µM	41%	COCCOCCOCCOc1cc2c(cc1OC)CN(CCc1ccc(NC(=O)c3ccc(C(=O)OC)c(NC(=O)c4ccc5ncccc5c4)c3)cc1)CC2
> 100 µM	> 1 µM	–	COc1cc2c(cc1OC)CN(CCc1ccc(NC(=O)c3ccc(C(=O)O)c(NC(=O)c4ccc5ncccc5c4)c3)cc1)CC2
0.172 µM	> 10 µM	55%	COC(=O)c1ccc(C(=O)Nc2ccc(CCN3CCc4cc(OC)c(OC)cc4C3)cc2)cc1NC(=O)c1ccc2ncccc2c1
0.059 µM	> 29 µM	–	COC(=O)c1ccc(C(=O)Nc2ccc(CCN3CCc4cc(OC)c(OC)cc4C3)cc2)cc1NC(=O)c1ccc2ccccc2n1
6.2 µM	> 100 µM	–	COCCOCCOCCOc1cc2c(cc1OC)CCN(CCc1ccc(NC(=O)c3ccc(C(=O)O)c(NC(=O)c4ccc5ccccc5n4)c3)cc1)C2
0.183 µM	> 50 µM	–	COCCOCCOCCOc1cc2c(cc1OC)CN(CCc1ccc(NC(=O)c3ccc(C(=O)OC)c(NC(=O)c4ccc5ccccc5n4)c3)cc1)CC2
0.508 µM	> 50 µM	61%	COCCOCCOCCOc1cc2c(cc1OC)CCN(CCc1ccc(NC(=O)c3ccc(C(=O)OC)c(NC(=O)c4ccc5ncccc5c4)c3)cc1)C2
> 50 µM	> 50 µM	–	COCCOCCOCCOc1cc2c(cc1OC)CN(CCc1ccc(NC(=O)c3ccc(C(=O)O)c(NC(=O)c4ccc5ncccc5c4)c3)cc1)CC2
> 50 µM	> 50 µM	–	COCCOCCOCCOc1cc2c(cc1OC)CCN(CCc1ccc(NC(=O)c3ccc(C(=O)O)c(NC(=O)c4ccc5ncccc5c4)c3)cc1)C2
